In ChEMBL document CHEMBL4024707, “Using gene expression database to uncover biology functions of 1,4-disubstituted 1,2,3-triazole analogues synthesized via a copper (I)-catalyzed reaction” (Eur J Med Chem, 2017):
Activity calls are given as the source filed them. The calls are words filed in the database; no cut-off is given here.

Key:
HT-29 = assay: Cytotoxicity against human HT-29 cells after 6 days by MTT assay; type: functional, cell-based; conditions: HT-29, 144 h
Hep 3B2 [1] = assay: Cytotoxicity against human Hep3B cells after 6 days by MTT assay; type: functional, cell-based; conditions: 144 h
Hep 3B2 [2] = assay: Cell cycle arrest in human Hep3B cells assessed as accumulation at sub-G1 phase at 30 uM after 48 hrs by propidium iodide staining based flow cytometry (reference value: 3.7 +/- 0.4%); type: functional
Hep 3B2 [3] = assay: Induction of apoptosis in human Hep3B cells assessed as ratio of cleaved caspase-3 to beta actin level at 30 uM after 48 hrs by Western blot analysis; type: functional
Hep 3B2 [4] = assay: Growth inhibition of human Hep3B cells at 30 uM after 48 hrs by MTT assay; type: functional, cell-based
Hep 3B2 [5] = assay: Cell cycle arrest in human Hep3B cells assessed as accumulation at G2/M phase at 30 uM after 48 hrs by propidium iodide staining based flow cytometry (reference value: 36.6 +/- 2.9%); type: functional
Hep 3B2 [6] = assay: Cell cycle arrest in human Hep3B cells assessed as accumulation at G0/G1 phase at 30 uM after 48 hrs by propidium iodide staining based flow cytometry (reference value: […] +/- […]%); type: functional
Hep 3B2 [7] = assay: Cell cycle arrest in human Hep3B cells assessed as accumulation at S phase at 30 uM after 48 hrs by propidium iodide staining based flow cytometry (reference value: 23.8 +/- 1.9%); type: functional
Hep 3B2 [8] = assay: Induction of autophagy in human Hep3B cells assessed as ratio of LC3-2 to beta-actin level at 30 uM after 48 hrs by Western blot analysis; type: functional

| SMILES | IC50 (HT-29) [µM] | IC50 (Hep 3B2 [1]) [µM] | also measured |
| --- | --- | --- | --- |
| CCC1Oc2ccccc2N(Cc2cn(Cc3ccccc3)nn2)C1=O (stereo unspecified) | > 100 | > 100 | – |
| COc1ccc2c(c1)OCC(=O)N2Cc1cn(Cc2ccccc2)nn1 | 9.3 | 9.2 | – |
| Cc1ccc2c(c1)N(Cc1cn(Cc3ccccc3)nn1)C(=O)CO2 | > 100 | > 100 | – |
| Cc1ccc(Cn2cc(CN3C(=O)COc4ccccc43)nn2)cc1 | 28.6 | > 100 | – |
| CC(C)(C)c1ccc(Cn2cc(CN3C(=O)COc4ccccc43)nn2)cc1 | 25.1 | 25.6 | – |
| Cc1ccc2c(c1)OCC(=O)N2Cc1cn(Cc2ccccc2)nn1 | 54.9 | > 100 | – |
| CCCCCCn1cc(CN2C(=O)COc3ccccc32)nn1 | 34.4 | > 100 | – |
| COc1ccc(Cn2cc(CN3C(=O)COc4ccccc43)nn2)cc1 | 18.5 | > 100 | – |
| O=C1COc2ccc(F)cc2N1Cc1cn(Cc2ccccc2)nn1 | > 100 | > 100 | – |
| Cc1cc2c(cc1Cl)N(Cc1cn(Cc3ccccc3)nn1)C(=O)CO2 | 19.6 | > 100 | – |
| O=C1C(c2ccccc2)Oc2ccccc2N1Cc1cn(Cc2ccccc2)nn1 (stereo unspecified) | > 100 | > 100 | – |
| CCCC1Oc2ccccc2N(Cc2cn(Cc3ccccc3)nn2)C1=O (stereo unspecified) | > 100 | 61.8 | – |
| O=C1COc2ccccc2N1Cc1cn(Cc2cccc3ccccc23)nn1 | 17 | 15.2 | – |
| COC(=O)Cn1cc(CN2C(=O)COc3ccccc32)nn1 | 50.8 | > 100 | – |
| O=C1COc2ccccc2N1Cc1cn(C/C=C/c2ccccc2)nn1 | > 100 | 38.9 | – |
| O=C1COc2ccccc2N1Cc1cn(Cc2ccccc2)nn1 | > 100 | 84.5 | – |
| COc1cc(/C=C/C(=O)CC(=O)/C=C/c2ccc(O)c(OC)c2)ccc1O [CURCUMIN] | – | – | Activity (Hep 3B2 [2]): 14.2%; Ratio (Hep 3B2 [3]): 1.2; growth inhibition (GI) (Hep 3B2 [4]): Active; Activity (Hep 3B2 [5]): 46.7%; Activity (Hep 3B2 [6]): 22.7%; Activity (Hep 3B2 [7]): 16.4%; Ratio (Hep 3B2 [8]): 6.6 |
| O=C1COc2cccnc2N1Cc1cn(Cc2ccccc2)nn1 | 12.8 | 8.7 | – |
| O=C1COc2ccccc2N1Cc1cn(CCc2c[nH]c3ccccc23)nn1 | 15.2 | 70 | – |
| O=C1COc2cc(F)ccc2N1Cc1cn(Cc2ccccc2)nn1 | > 100 | 0.9 | – |
| CCOC(=O)c1ccc2c(c1)N(Cc1cn(Cc3ccccc3)nn1)C(=O)CO2 | 41.5 | 17.1 | – |
| COc1ccc2c(c1)N(Cc1cn(Cc3ccccc3)nn1)C(=O)CO2 | > 100 | > 100 | – |
| O=C1COc2ccccc2N1Cc1cn(CCc2ccccc2)nn1 | 48.8 | 66 | – |
| O=C1COc2ccccc2N1Cc1cn(Cc2ccc3ccccc3n2)nn1 | > 100 | > 100 | – |
| CCOC(=O)Cn1cc(CN2C(=O)COc3ccccc32)nn1 | 36.4 | 19 | – |
| O=C1COc2ccccc2N1Cc1cn(Cc2ccc(Cl)cc2)nn1 | 21.9 | > 100 | – |
| O=C1COc2ccccc2N1Cc1cn(Cc2ccc([N+](=O)[O-])cc2)nn1 | 15.6 | 29.6 | – |
| O=C1COc2ccc(Cl)cc2N1Cc1cn(Cc2ccccc2)nn1 | 76.5 | 55.5 | – |
